What is called IC50 is the midpoint of a concentration-inhibition curve.

In brackets after ≈: the same amount, converted by molar mass. Counter-ions that a name gives are not always drawn. Like-named read-outs stand apart in the source and are kept apart here. Marks after values point to notes of the source that are not given here.

Data on 7 compounds can be found in paper PMC12777753 (Emerging Microbes & Infections, 2025).

Assay [1] relates to A/bald eagle/FL/2022 (H5N1). The assay is described as follows: microbe, parasite or virus in culture. It counts as cell-based, influenza A(H5N1) virus. Conditions: Influenza A virus.
Assay [2] relates to A/Wisconsin/53/2009 (H1N1)pdm09. The assay is described as follows: microbe, parasite or virus in culture. The class given is cell-based, influenza A(H1N1)pdm09 virus. Conditions: Influenza A virus, H1N1, read-out: EC50 ± SD.
Assay [3] deals with clade 2.3.4.4b HPAI A(H5N1) viruses (B3.13 and D1.1). In words: microbe, parasite or virus in culture. It counts as cell-based. Conditions: for EC50: Influenza A virus, H5N1, read-out: 50% effective concentrations (EC50s), range over viruses.
Assay [4] has as its system A/California/147/2024 (CA/147, wildtype). Also noted: species or system BALB/c mice. Particulars: mouse, in vivo; for Survival (%): po.
The subject of assay [5] is Genotype B3.13 viruses (n = 10). The assay is described as follows: microbe, parasite or virus in culture. It counts as cell-based, influenza A(H5N1) virus. Particulars: Influenza A virus, read-out: PA inhibitor EC50, median.
In assay [6] the test system is A/Illinois/08/2018 (H1N1)pdm09. In words: microbe, parasite or virus in culture. The class given is cell-based, influenza A(H1N1)pdm09 virus. Conditions: Influenza A virus, H1N1, read-out: PA inhibitor EC50 ± SD.
A further assay concerns A/Nevada/10/2025. In words: microbe, parasite or virus in culture. It counts as cell-based, influenza A(H5N1) virus. Particulars: Influenza A virus, read-out: PA inhibitor EC50 ± SD.
The next assay concerns A/California/155/2024. In words: microbe, parasite or virus in culture. The class given is cell-based, influenza A(H5N1) virus. Particulars: Influenza A virus, read-out: PA inhibitor EC50 ± SD.
The test system of another assay is A/California/153/2024. The assay is described as follows: microbe, parasite or virus in culture. Particulars: Influenza A virus, read-out: PA inhibitor EC50 ± SD. It counts as cell-based, influenza A(H5N1) virus.
For assay [7], the system named is A/Louisiana/50/2017 (H3N2). In words: microbe, parasite or virus in culture. Conditions: Influenza A virus, H3N2, read-out: PA inhibitor EC50 ± SD. The class given is cell-based.
For assay [8], the system named is Genotype D1.1 viruses (n = 7). The assay is described as follows: microbe, parasite or virus in culture. It counts as cell-based, influenza A(H5N1) virus. Particulars: Influenza A virus, read-out: PA inhibitor EC50, median.
In a further assay the test system is A/California/148/2024. In words: microbe, parasite or virus in culture. The class given is cell-based, influenza A(H5N1) virus. Particulars: Influenza A virus, read-out: PA inhibitor EC50 ± SD.
Another assay has as its system A/California/152/2024. In words: microbe, parasite or virus in culture. The class given is cell-based, influenza A(H5N1) virus. Conditions: Influenza A virus, read-out: PA inhibitor EC50 ± SD.
The test system of another assay is A/California/151/2024. In words: microbe, parasite or virus in culture. It counts as cell-based, influenza A(H5N1) virus. Particulars: Influenza A virus, read-out: PA inhibitor EC50 ± SD.
A further assay has as its system A/California/147/2024. In words: microbe, parasite or virus in culture. The class given is cell-based, influenza A(H5N1) virus. Conditions: Influenza A virus, read-out: PA inhibitor EC50 ± SD.
The target in assay [9] is NA of A/California/155/2024 (Influenza A virus, UniProt Q9Q0U7). The class given is biochemical, influenza A(H5N1) virus. Conditions: read-out: NA inhibitor IC50 ± SD.
In the next assay the target is NA of A/Wyoming/01/2025 (Influenza A virus, UniProt Q9Q0U7). It counts as biochemical, influenza A(H5N1) virus. Conditions: read-out: NA inhibitor IC50 ± SD.
In a further assay the target is NA of A/Nevada/10/2025 (Influenza A virus, UniProt Q9Q0U7). The class given is biochemical, influenza A(H5N1) virus. Particulars: read-out: NA inhibitor IC50 ± SD.
The target in assay [10] is NA of A/California/173/2024 (Influenza A virus, UniProt Q9Q0U7). It counts as biochemical, influenza A(H5N1) virus. Conditions: read-out: NA inhibitor IC50 ± SD.
The target in another assay is NA of A/Iowa/24/2024 (Influenza A virus, UniProt Q9Q0U7). The class given is biochemical, influenza A(H5N1) virus. Particulars: read-out: NA inhibitor IC50 ± SD.
The target of assay [11] is NA of A/Illinois/08/2018 (H1N1)pdm09 (Influenza A virus, UniProt A0A0X9QTS2). The class given is biochemical. Conditions: read-out: NA inhibitor IC50 ± SD.
Assay [12] has as its target NA of A/Illinois/45/2019 (H1N1)pdm09 (Influenza A virus, UniProt A0A0X9QTS2). It counts as biochemical. Conditions: read-out: NA inhibitor IC50 ± SD.
In assay [13] the target is recNA A/California/148/2024 (genotype B3.13) WT (Influenza A virus, UniProt Q9Q0U7). It counts as biochemical, influenza A(H5N1) virus.
The target of assay [14] is NA of A/bald eagle/FL/2022 (H5N1) (Influenza A virus, UniProt Q9Q0U7). The class given is biochemical. Particulars: read-out: NA inhibitor IC50 ± SD.
For assay [15], the target named is NA of A/California/153/2024 (Influenza A virus, UniProt Q9Q0U7). It counts as biochemical, influenza A(H5N1) virus. Conditions: read-out: NA inhibitor IC50 ± SD.
For assay [16], the target named is NA of Genotype D1.1 viruses (n = 7) (Influenza A virus, UniProt Q9Q0U7). The class given is biochemical, influenza A(H5N1) virus. Particulars: read-out: NA inhibitor IC50, median.
Assay [17] concerns the target NA of Genotype B3.13 viruses (n = 10) (Influenza A virus, UniProt Q9Q0U7). It counts as biochemical, influenza A(H5N1) virus. Particulars: read-out: NA inhibitor IC50, median.
Assay [18] deals with NA of A/California/147/2024 (Influenza A virus, UniProt Q9Q0U7). The class given is biochemical, influenza A(H5N1) virus. Particulars: read-out: NA inhibitor IC50 ± SD.
The target in assay [19] is NA of A/California/152/2024 (Influenza A virus, UniProt Q9Q0U7). It counts as biochemical, influenza A(H5N1) virus. Particulars: read-out: NA inhibitor IC50 ± SD.
Assay [20] concerns the target NA of A/California/148/2024 (Influenza A virus, UniProt Q9Q0U7). The class given is biochemical, influenza A(H5N1) virus. Conditions: read-out: NA inhibitor IC50 ± SD.
The target of assay [21] is NA of A/Louisiana/50/2017 (H3N2) (Influenza A virus, UniProt A0A193ACB1). The class given is biochemical. Conditions: read-out: NA inhibitor IC50 ± SD.
The target in assay [22] is NA of A/California/151/2024 (Influenza A virus, UniProt Q9Q0U7). It counts as biochemical, influenza A(H5N1) virus. Conditions: read-out: NA inhibitor IC50 ± SD.
Assay [23] addresses recNA A/Washington/239/2024 (genotype D1.1) WT (Influenza A virus, UniProt Q8QPK2). It counts as biochemical, influenza A(H5N1) virus.

As to `NC12CC3CC(CC(C3)C1)C2` [Amantadine, amantadine hydrochloride], the EC50 in assay [1] (H5N1, read-out: EC50 ± SD) was 20.5 ± 4.96 ng/mL; in assay [2], 25.9 ± 1.51 ng/mL; in [3], 9.25 to 21.5 ng/mL.

Take `COC(=O)OCOc1c2n(ccc1=O)N([C@@H]1c3ccccc3SCc3c1ccc(F)c3F)[C@@H]1COCCN1C2=O` [Baloxavir marboxil, baloxavir marboxil]: in assay [4] (5 mg/kg), the “Mean TTD (day)” value is given as 11^c day; the “Wt. Loss (%), mean maximum weight loss” value worked out at 5%; the “Survival (%)” value is given as 7/8 (87.5) %. In addition, in assay [4] (15 mg/kg), the “Wt. Loss (%), mean maximum weight loss” value worked out at 6% and the “Survival (%)” value is reported as 8/8 (100) %. In assay [4] (45 mg/kg), the “Wt. Loss (%), mean maximum weight loss” value was determined as 4% and the “Survival (%)” value was 8/8 (100) %.

For the compound `O=C1c2c(O)c(=O)ccn2N([C@@H]2c3ccccc3SCc3c2ccc(F)c3F)[C@@H]2COCCN12` [Baloxavir, baloxavir acid], the EC50 was 500 pM in assay [5]; 960 ± 370 pM in assay [6]; 390 ± 160 pM in [1] (H5N1, read-out: PA inhibitor EC50 ± SD); 340 pM in the assay on A/Nevada/10/2025; 410 pM with A/California/155/2024; 590 pM with A/California/153/2024. Moreover, the EC50 worked out at 800 ± 280 pM in [7]; 340 pM in [8]; 260 pM with A/California/148/2024; 450 pM in the assay with A/California/152/2024; 720 pM in the assay with A/California/151/2024; 400 pM in the assay on A/California/147/2024. Also, in assay [3], the “EC50s, in words” value was “sub-nanomolar”. Further, the “infectious virus in any organs of treated mice” value in assay [4] is given as “not detected”. Moreover, the “loss of initial weight” value in assay [4] (5 mg/kg) is at most 6%. The “Survival (%)” value in [4] (5 mg/kg) is given as 87.5%.

With `CC(N)C12CC3CC(CC(C3)C1)C2` (stereo not drawn) [Rimantadine, rimantadine], the EC50 was 5.74 ± 1.31 ng/mL in assay [1] (H5N1, read-out: EC50 ± SD); 6.08 ± 0.9 ng/mL (≈ 0.0339 µM) in assay [2]; 3.14 to 6.48 ng/mL (≈ 0.0175 to 0.0361 µM) in assay [3].

As to `CC(=O)N[C@H]1[C@H]([C@H](O)[C@H](O)CO)OC(C(=O)O)=C[C@@H]1N=C(N)N` [Zanamivir, zanamivir], the IC50 amounted to 160 pM in assay [9]; 460 pM at NA of A/Wyoming/01/2025; 360 pM on NA of A/Nevada/10/2025; 230 pM in assay [10]; 340 pM on NA of A/Iowa/24/2024.

Consider oseltamivir carboxylate, for which the IC50 in [11] stood at 340 ± 30 pM; in assay [12] it was 280 ± 40 pM.

Regarding peramivir, the 50% inhibitory concentration (IC50) in assay [13] amounted to 80 pM; in [14] it was 80 ± 20 pM; in assay [15] it was 60 pM; in assay [16], 70 pM; in assay [17], 70 pM; in [9], 80 pM. In addition, the IC50 in assay [18] amounted to 70 pM; in [11], 40 ± 10 pM; on NA of A/Wyoming/01/2025, 70 pM; in assay [19] it was 80 pM; in [20] it was 70 pM; on NA of A/Nevada/10/2025, 70 pM. Besides, the IC50 worked out at 70 ± 10 pM in assay [21]; 60 pM in [10]; 70 pM at NA of A/Iowa/24/2024; 70 pM in assay [22]; 40 ± 10 pM in assay [12]; 60 pM in assay [23].
